One experiment concerns HOP-62. Briefly: Cytotoxicity against human HOP62 cells after 48 hrs by trypan blue dye exclusion assay. Format: functional. As to conditions: HOP-62, 48 h.
The next experiment concerns NCI-H322M. In words: Cytotoxicity against human NCI-H322M cells after 48 hrs by trypan blue dye exclusion assay. The experiment is classed as functional.
The subject of the next experiment is NCI-H522. In words: Cytotoxicity against human NCI-H522 cells after 48 hrs by trypan blue dye exclusion assay. The experiment is classed as functional. To be noted: NCI-H522, 48 h.
In the next experiment the test system is HCC 2998. In words: Cytotoxicity against human HCC2998 cells after 48 hrs by trypan blue dye exclusion assay. Format: functional. To be noted: HCC 2998, 48 h.
The next experiment has as its system HCT-116. Briefly: Cytotoxicity against human HCT116 cells after 48 hrs by trypan blue dye exclusion assay. As to conditions: HCT-116, 48 h. The experiment is classed as functional.
A further experiment has as its system SF-295. In words: Cytotoxicity against human SF295 cells after 48 hrs by trypan blue dye exclusion assay. The experiment is classed as functional. As to conditions: SF-295, 48 h.
The subject of a further experiment is SF-539. In words: Cytotoxicity against human SF539 cells after 48 hrs by trypan blue dye exclusion assay. Format: functional. To be noted: SF-539, 48 h.
For a further experiment, the system named is U-251. Briefly: Cytotoxicity against human U251 cells after 48 hrs by trypan blue dye exclusion assay. As to conditions: U-251, 48 h. Format: functional.
Another experiment deals with SK-MEL-2. Briefly: Cytotoxicity against human SK-MEL-2 cells after 48 hrs by trypan blue dye exclusion assay. Format: functional. As to conditions: SK-MEL-2, 48 h.
The test system of another experiment is OVCAR-8. In words: Cytotoxicity against human OVCAR8 cells after 48 hrs by trypan blue dye exclusion assay. Format: functional. To be noted: OVCAR-8, 48 h.
In the next experiment the test system is TK-10. In words: Cytotoxicity against human TK10 cells after 48 hrs by trypan blue dye exclusion assay. To be noted: TK-10, 48 h. Format: functional.
The next experiment relates to MDA-MB-231. Briefly: Cytotoxicity against human MDA-MB-231 cells after 48 hrs by trypan blue dye exclusion assay. As to conditions: MDA-MB-231, 48 h. Format: functional.
The subject of experiment [1] is Paracentrotus lividus. In words: Antimitotic activity against Paracentrotus lividus embryo assessed as concentration required to cause 100% cleavage arrest after 2.5 to 6 hrs. The experiment is classed as functional.
Experiment [2] concerns Paracentrotus lividus. Briefly: Microtubule destabilizing activity in Paracentrotus lividus embryo assessed as concentration required to cause 100% embryo spinning after 15 mins to 20 hrs. The experiment is classed as functional.
Experiment [3] relates to Paracentrotus lividus. In words: Microtubule destabilizing activity in Paracentrotus lividus embryo assessed as embryo spinning at 2 fold less effective threshold concentration after 15 mins to 20 hrs. The experiment is classed as functional, organism-based.

Calls of active or inactive are those of the source. Some results are limits rather than exact numbers.

For orientation: GI50 means the concentration giving 50% growth inhibition. A higher GI50 goes with lower sensitivity of the cells.

Consider `COc1ccc2c(c1)OC1=C(C(=O)OC1)C2c1cc(OC)c2c(c1)OCO2` (stereo not given), for which the GI50 is 34.9 nM in the experiment with HOP-62; 71.3 nM with NCI-H322M; below 10 nM with NCI-H522; 42.1 nM with HCC 2998; 37.4 nM with HCT-116; 20.2 nM in the experiment with SF-295. The GI50 was determined as 34.4 nM in the experiment on SF-539; 42.7 nM with U-251; 34.3 nM in the experiment on SK-MEL-2; 55.6 nM with OVCAR-8; 268 nM in the experiment with TK-10; 61.4 nM in the experiment on MDA-MB-231. In addition, the values for the EC in the experiment on Paracentrotus lividus [1] and with Paracentrotus lividus [2] were 10 nM and 100 nM, respectively. In addition, in the experiment on Paracentrotus lividus [3], the result was inactive.

The values are drawn from ChEMBL document CHEMBL2010711, “Synthesis and comparative evaluation of 4-oxa- and 4-aza-podophyllotoxins as antiproliferative microtubule destabilizing agents” (Bioorg Med Chem Lett, 2012).
